Biological target: Recombinant human HSD17B13 (Homo sapiens (Human), UniProt Q7Z5P4)
Assay: HSD17B13 rapid-fire mass spectrometry assay (RF/MS assay)
Type: biochemical
Details: inhibition of HSD17B13; LTB4 10 μM, NAD+ 0.5 mM, RT 3 h; IC50 ranges A-E
Summary of the method: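 Product 12-oxo-LTB4 and substrate LTB4 quantified by RapidFire triple-quad MS in negative mode, giving percent conversion. Reaction: 80 nM recombinant hHSD17B13, 10 μM LTB4, 0.5 mM NAD+, compound up to 100 μM, pH 7.5, RT, 3 h. Variable-slope fit gave IC50; run in duplicate.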

Chain of Recombinant human HSD17B13 (Q7Z5P4 20-300): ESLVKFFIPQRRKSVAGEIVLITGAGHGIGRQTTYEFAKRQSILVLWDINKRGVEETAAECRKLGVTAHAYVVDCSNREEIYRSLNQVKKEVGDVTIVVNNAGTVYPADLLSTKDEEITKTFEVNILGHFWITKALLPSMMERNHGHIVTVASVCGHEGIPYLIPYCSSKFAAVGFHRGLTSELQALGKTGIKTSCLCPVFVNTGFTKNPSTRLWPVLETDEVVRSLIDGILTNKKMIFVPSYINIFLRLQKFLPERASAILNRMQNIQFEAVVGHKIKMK

| IC50 | SMILES |
| --- | --- |
| 1000 to 100000 nM | COc1cc(C(=O)O)c(F)cc1NS(=O)(=O)c1csc(-c2ccc(-c3ccc(-c4ccc(C56CC7C[C@H](C5)C[C@H](C7)C6)cc4)cc3C(F)(F)F)cc2C(F)(F)F)n1 [Example 737] |
| 1000 to 100000 nM | O=C(O)c1ccc(NS(=O)(=O)c2cnc(-c3ccc(F)cc3)s2)cn1 [Example 26] |
| < 100 nM | CC[C@H]1CC[C@H](c2ccc(-c3nc(S(=O)(=O)Nc4cc(F)c(C(=O)O)cc4OC)cs3)cc2)CC1 [Example 723] |
| 100 to 500 nM | COc1cc(C(=O)O)ccc1NS(=O)(=O)c1csc(-c2c(F)ccc3ccccc23)n1 [Example 153] |
| 1000 to 100000 nM | COc1cc(C(=O)O)ccc1NS(=O)(=O)N1CCC(c2ccccc2)CC1 [Example 310] |
| < 100 nM | COc1cc(C(=O)O)c(F)cc1NS(=O)(=O)c1csc(-c2ccc([C@H]3CC[C@@H](C(C)C)CC3)c(C)c2F)n1 [Example 807] |
| 1000 to 100000 nM | O=C(O)C1CCN(S(=O)(=O)c2cnc(-c3ccc(F)cc3)s2)CC1 [Example 64] |
| 100 to 500 nM | COc1cc(C(=O)O)c(F)cc1NS(=O)(=O)c1csc(-c2ccc(-c3ccc(C45CC6C[C@H](C4)C[C@H](C6)C5)cc3)c(F)c2F)n1 [Example 739] |
| 500 to 1000 nM | COc1cc(C(=O)O)ccc1NS(=O)(=O)N1Cc2nc(-c3ccc(C4CCCCC4)cc3)sc2C1 [Example 344] |
| 1000 to 100000 nM | CC[C@H]1CC[C@H](c2ccc(-c3nc(S(=O)(=O)Nc4cc5c(cc4OC)C(=O)NC5)cs3)cc2)CC1 [Example 574] |
| 100 to 500 nM | COc1cc(C(=O)O)c(F)cc1NS(=O)(=O)c1csc(-c2ccc(-c3ccc(C(F)(F)C(F)(F)F)cc3)cc2)n1 [Example 735] |
| 1000 to 100000 nM | COc1cc(C(=O)O)ccc1NS(=O)(=O)c1csc(-c2ccc(C(=O)O)cc2)n1 [Example 117] |
| 1000 to 100000 nM | COc1cc(C(=O)O)ccc1NS(=O)(=O)N1CCN(c2cccc(-c3ccccc3)c2)CC1 [Example 321] |
| 100 to 500 nM | COc1cc(C(=O)O)c(F)cc1NS(=O)(=O)c1cnc(-c2ccc(-c3ccc(C45CC6C[C@H](C4)C[C@H](C6)C5)cc3)cc2)s1 [Example 766] |
| 100 to 500 nM | COc1cc(C(=O)O)ccc1NS(=O)(=O)c1cnc(-c2ccc(C3=C[C@H]4CC[C@]3(C)C4(C)C)cc2)s1 [Example 711] |
| 1000 to 100000 nM | COc1nc(C(=O)O)cnc1NS(=O)(=O)c1cnc(-c2ccc(F)cc2)s1 [Example 84] |
| 100 to 500 nM | COc1cc(C(=O)O)ccc1NS(=O)(=O)c1cccc(-c2ccc(C3CCCCC3)cc2)n1 [Example 412] |
| < 100 nM | COc1cc(C(=O)O)c(F)cc1NS(=O)(=O)c1csc(C#Cc2ccc(C(F)(F)F)cc2)n1 [Example 227] |
| 1000 to 100000 nM | O=C(O)c1ccc(NS(=O)(=O)c2ccc3ccccc3c2)cc1 [Example 4] |
| < 100 nM | COc1cc(C(=O)O)ccc1NS(=O)(=O)c1csc(-c2ccc(C3=CCCCC3)cc2)n1 [Example 349] |
| < 100 nM | COc1cc(C(=O)O)c(F)cc1NS(=O)(=O)c1csc(-c2ccc(-c3cccc4[nH]ccc34)cc2)n1 [Example 647] |
| < 100 nM | COc1cc(C(=O)O)c(F)cc1NS(=O)(=O)c1csc(-c2ccc([C@H]3CC[C@H](C(C)C)CC3)c(C)c2F)n1 [Example 808] |
| 100 to 500 nM | CCC1CC=C(c2ccc(-c3nc(S(=O)(=O)Nc4ccc(C(=O)O)cc4OC)co3)cc2)CC1 (stereo not drawn) [Example 487] |
| 500 to 1000 nM | COc1cc(C(=O)O)c(F)cc1NS(=O)(=O)c1cc(-c2ccc(C3CCCCC3)cc2)ccn1 [Example 622] |

| IC50 | SMILES |
| --- | --- |
| 100 to 500 nM | COc1cc(C(=O)O)c(F)cc1NS(=O)(=O)c1csc(-c2ccc(-c3cncc(F)c3)cc2)n1 [Example 655] |
| 100 to 500 nM | COc1cc(C(=O)O)ccc1NS(=O)(=O)c1ccc(C2CCC(c3ccccc3)CC2)cc1F (stereo not drawn) [Example 357] |
| 100 to 500 nM | COc1cc(C(=O)O)ccc1NS(=O)(=O)c1ccc(-c2ccc(O)cc2)s1 [Example 180] |
| 1000 to 100000 nM | COc1cc(-c2ccc(C(=O)O)cc2)ccc1NS(=O)(=O)c1cnc(-c2ccc(F)cc2)s1 [Example 389, 4′-((2-(4-fluorophenyl)thiazole)-5-sulfonamido)-3′-methoxy-[1,1′-biphenyl]-4-carboxylic acid] |
| < 100 nM | COc1cc(C(=O)O)ccc1NS(=O)(=O)c1csc(C#CC2CC2)n1 [Example 214] |
| < 100 nM | COc1cc(C(=O)O)c(F)cc1NS(=O)(=O)c1cccc(-c2ccc(C3=CC[C@H](C(C)(C)C)CC3)cc2)c1F [Example 499] |
| 100 to 500 nM | COc1cc(C(=O)O)c(F)cc1NS(=O)(=O)c1coc(-c2ccc([C@H]3CC[C@@H](O)CC3)cc2)n1 [Example 623] |
| 100 to 500 nM | COc1cc(C(=O)O)ccc1NS(=O)(=O)c1cccc(-c2ccc(C3=CCC(C(F)(F)F)CC3)cc2)c1F (stereo not drawn) [Example 471] |
| 100 to 500 nM | COc1cc(C(=O)O)c(F)cc1NS(=O)(=O)c1ncc(-c2ccc([C@H]3CC[C@H](C(F)(F)F)CC3)cc2)s1 [Example 621] |
| 100 to 500 nM | COc1cc(C(=O)O)ccc1NS(=O)(=O)c1ccc(-c2ccc(C3=CCC(C)(C)CC3)cc2)s1 [Example 429, 4-((5-(4′,4′-dimethyl-2′,3′,4′,5′-tetrahydro-[1,1′-biphenyl]-4-yl)thiophene)-2-sulfonamido)-3-methoxybenzoic acid] |
| 1000 to 100000 nM | COc1cc(C(=O)O)ccc1NS(=O)(=O)c1csc(N2CCCC(C(C)c3ccccc3)C2)n1 (stereo not drawn) [Example 295] |
| 100 to 500 nM | CCCCC[C@H]1CC[C@H](c2ccc(-c3cccc(S(=O)(=O)Nc4ccc(C(=O)O)cc4OC)c3F)cc2)CC1 [Example 470] |
| 100 to 500 nM | COc1cc(C(=O)O)ccc1NS(=O)(=O)c1ccc(F)c(-c2ccc(C3CCCCC3)cc2)c1 [Example 437] |
| 1000 to 100000 nM | COc1cc(C(=O)O)ccc1NS(=O)(=O)c1csc(-c2cccc(C#N)c2)n1 [Example 129] |
| 1000 to 100000 nM | COc1cc(C(=O)O)ccc1NS(=O)(=O)N1CCCC(Oc2ccccc2)C1 (stereo not drawn) [Example 320, 3-methoxy-4-((3-phenoxypiperidine)-1-sulfonamido)benzoic acid] |
| 1000 to 100000 nM | O=C(O)c1cnc(NS(=O)(=O)c2cnc(-c3ccc(F)cc3)s2)nc1 [Example 83] |
| 100 to 500 nM | COc1cc(C(=O)O)ccc1NS(=O)(=O)c1ccc(-c2ccccc2)cc1 [Example 144] |
| 100 to 500 nM | COc1cc(C(=O)O)c(F)cc1NS(=O)(=O)c1csc(-c2ccc(-c3ccc(-c4ccc(C(F)(C(F)(F)F)C(F)(F)F)cc4)cc3C(F)(F)F)cc2C(F)(F)F)n1 [Example 797] |
| 100 to 500 nM | COc1cc(C(=O)O)ccc1NS(=O)(=O)c1coc(-c2ccc([C@H]3CC[C@H](C(F)(F)F)CC3)cc2)n1 [Example 610] |
| 100 to 500 nM | COc1cncc(C#Cc2nc(S(=O)(=O)Nc3ccc(C(=O)O)cc3OC)cs2)c1 [Example 248] |
| < 100 nM | COc1cc(C(=O)O)ccc1NS(=O)(=O)c1csc(C#Cc2ccc(C#N)c(OC(F)(F)F)c2)n1 [Example 397] |
| 1000 to 100000 nM | O=C(O)c1ccc(NS(=O)(=O)c2csc(N3CCOCC3)n2)cc1 [Example 57, 4-((2-morpholinothiazole)-4-sulfonamido)benzoic acid] |
| < 100 nM | COc1cc(C(=O)O)ccc1NS(=O)(=O)c1coc(-c2ccc(C3CCC(C(F)(F)F)CC3)cc2)n1 (stereo not drawn) [Example 468] |
| < 100 nM | COc1cc(C(=O)O)ccc1NS(=O)(=O)c1csc(C#Cc2ccc(F)c(OC(F)(F)F)c2)n1 [Example 393, 4-((2-((4-fluoro-3-(trifluoromethoxy)phenyl)ethynyl)thiazole)-4-sulfonamido)-3-methoxybenzoic acid] |

Source: patent publication US12384753B2, “17-beta-hydroxysteroid dehydrogenase type 13 inhibitors and methods of use thereof” (Enanta Pharmaceuticals, Inc., priority 2021, dated 2025)
